Laboratory results as given in BindingDB's records for patent US10561657 (Centaurus Biophrama, 2020).

Biological target: Tyrosine-protein kinase JAK2 (Homo sapiens, UniProt O60674)
Assay: Enzymatic Activity Assay
Protocol: A testing platform for kinase activity of JAK2 (wild type and V617F mutant type) was established based on Homogeneous Time-Resolved Fluorescence (HTRF) assay, and the activities of the compounds were tested using the platform. The compounds were subjected to three-fold gradient dilutions with 100% DMSO with a starting concentration of 1 mM (11 dilutions in total). 4 μL of each dilution was added to 96 μL of reaction buffer (50 mM HEPES, pH 7.4, 10 mM MgCl2, 1 mM EGTA, 0.01% Tween-20, 0.005% BAS, 2 mM DTT) and mixed homogeneously. […] The mixture was mixed homogeneously by centrifugation. […] The plate was incubated in the incubator for 1 hr, and then the fluorescence values were read on Envision (available from PerkinElmer). […] The enzymatic activity was representd by a ratio of the two readout at the two emission wavelengths.

Chain of Tyrosine-protein kinase JAK2 (O60674 whole entry): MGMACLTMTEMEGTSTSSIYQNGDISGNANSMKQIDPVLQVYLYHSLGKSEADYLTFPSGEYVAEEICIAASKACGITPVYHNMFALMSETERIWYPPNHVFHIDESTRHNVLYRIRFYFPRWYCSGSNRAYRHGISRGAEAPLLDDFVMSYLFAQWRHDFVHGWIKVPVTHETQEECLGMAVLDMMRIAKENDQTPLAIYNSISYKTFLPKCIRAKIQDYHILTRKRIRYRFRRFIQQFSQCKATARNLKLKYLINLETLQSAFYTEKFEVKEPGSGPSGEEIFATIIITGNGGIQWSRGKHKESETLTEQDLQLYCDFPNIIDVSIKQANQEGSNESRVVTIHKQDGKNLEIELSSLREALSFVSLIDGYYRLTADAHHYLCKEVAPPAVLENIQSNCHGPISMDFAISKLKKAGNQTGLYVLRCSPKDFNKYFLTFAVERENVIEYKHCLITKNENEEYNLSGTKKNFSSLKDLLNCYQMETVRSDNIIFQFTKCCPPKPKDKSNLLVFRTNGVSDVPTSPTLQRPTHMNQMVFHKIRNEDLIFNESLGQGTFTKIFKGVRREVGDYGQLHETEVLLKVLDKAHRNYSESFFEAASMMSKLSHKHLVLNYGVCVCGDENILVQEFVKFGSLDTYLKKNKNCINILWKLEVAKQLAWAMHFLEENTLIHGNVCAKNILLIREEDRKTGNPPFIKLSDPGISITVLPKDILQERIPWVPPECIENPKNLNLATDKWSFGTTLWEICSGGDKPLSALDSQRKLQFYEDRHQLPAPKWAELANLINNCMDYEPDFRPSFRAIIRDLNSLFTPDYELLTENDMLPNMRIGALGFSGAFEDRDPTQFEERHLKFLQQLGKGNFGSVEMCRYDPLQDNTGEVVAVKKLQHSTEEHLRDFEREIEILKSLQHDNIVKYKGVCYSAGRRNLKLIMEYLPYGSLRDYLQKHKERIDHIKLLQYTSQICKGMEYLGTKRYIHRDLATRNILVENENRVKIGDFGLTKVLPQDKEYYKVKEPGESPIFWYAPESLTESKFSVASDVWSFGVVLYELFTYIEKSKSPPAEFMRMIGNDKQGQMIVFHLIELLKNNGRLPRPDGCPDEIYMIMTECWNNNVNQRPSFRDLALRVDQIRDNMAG

| IC50 [nM] | Structure (SMILES) |
| --- | --- |
| < 20 | CS(=O)(=O)Nc1nn(C(CC#N)C2CCCC2)cc1-c1ncnc2[nH]ccc12 (configuration not stated) [US10561657, Example 10] |
| < 100 | NC(=O)CC(C1CCCC1)n1cc(-c2ncnc3[nH]ccc23)c(N)n1 (configuration not stated) [US10561657, Example 2] |
